Measurements: ChEMBL document CHEMBL1130300, “Antiinflammatory effects of escins Ia, Ib, IIa, and IIb from horse chestnut, the seeds of Aesculus hippocastanum L” (Bioorg Med Chem Lett, 1997)
Active and inactive are the calls of the source. The rule behind the calls is not given here.

Legend:
Assay type in all cases: functional, organism-based
Rattus norvegicus [1] = assay: Compound was tested for dose-dependent inhibition in increase of vascular permeability induced by intracutaneous injection of serotonin in rat at 200 mg/kg, p.o.; NI means No inhibition; design: dose 200 mg/kg
Rattus norvegicus [2] = assay: Compound at 50-200 mg/kg, p.o, dose-dependently inhibited the increase of vascular permeability induced by intracutaneous injection of histamine in rat; inhibited
Rattus norvegicus [3] = assay: Compound was tested for dose-dependent inhibition in increase of vascular permeability induced by intracutaneous injection of serotonin in rat at 50-200 mg/kg, p.o; Inhibited
Mus musculus [4] = assay: Compound at 25-200 mg/kg, p.o., dose-dependently inhibited the scratching behavior induced by subcutaneous injection […]; inhibited
Rattus norvegicus [5] = assay: Compound at 200 mg/kg peroral dose in rat showed tendency to inhibit the second phase; inhibited; design: dose 200 mg/kg
Rattus norvegicus [6] = assay: Compound at 200 mg/kg, p.o., also significantly inhibited the hind paw edema induced by carrageenan at first phase in rat; inhibited; design: dose 200 mg/kg
Mus musculus [7] = assay: Compound at 50-200 mg/kg, p.o, dose-dependently inhibited the increase of vascular permeability induced by intraperitoneal injection of acetic acid in mice; inhibited
Rattus norvegicus [8] = assay: Compound at 200 mg/kg peroral dose in rat showed significant suppression at second phase; suppressed; design: dose 200 mg/kg

**Q.** Which Activity (Rattus norvegicus [1]) does the source give for `CC1(C)CC2C3=CCC4[C@@]5(C)CC[C@H](O[C@@H]6O[C@H](C(=O)O)[C@@H](O[C@@H]7O[C@H](CO)[C@@H](O)[C@H](O)[C@H]7O)[C@H](O)[C@H]6O[C@@H]6OC[C@@H](O)[C@H](O)[C@H]6O)[C@](C)(CO)C5CC[C@@]4(C)[C@]3(C)C[C@@H](O)[C@@]2(CO)[C@@H](O)[C@@H]1O` (stereo not given in full) here?
**A.** The Activity was “inactive”.

**Q.** With `CC1(C)CC2C3=CCC4[C@@]5(C)CC[C@H](O[C@@H]6O[C@H](C(=O)O)[C@@H](O[C@@H]7O[C@H](CO)[C@@H](O)[C@H](O)[C@H]7O)[C@H](O)[C@H]6O[C@@H]6O[C@H](CO)[C@@H](O)[C@H](O)[C@H]6O)[C@](C)(CO)C5CC[C@@]4(C)[C@]3(C)C[C@@H](O)[C@@]2(CO)[C@@H](O)[C@@H]1O` (stereo not given in full) as the molecule, how does the Activity (Rattus norvegicus [1]) read?
**A.** The Activity was “inactive”.

**Q.** Which results are given for `C/C=C(/C)C(=O)O[C@H]1[C@H](OC(C)=O)[C@@]2(CO)C(CC1(C)C)C1=CCC3[C@@]4(C)CC[C@H](O[C@@H]5O[C@H](C(=O)O)[C@@H](O[C@@H]6O[C@H](CO)[C@@H](O)[C@H](O)[C@H]6O)[C@H](O)[C@H]5O[C@@H]5OC[C@@H](O)[C@H](O)[C@H]5O)[C@](C)(CO)C4CC[C@@]3(C)[C@]1(C)C[C@H]2O` (stereo not given in full)?
**A.** Activity (Rattus norvegicus [2]): inhibited; Activity (Rattus norvegicus [3]): inhibited; Activity (Mus musculus [4]): inhibited; Activity (Rattus norvegicus [5]): inhibited; Activity (Rattus norvegicus [6]): inhibited; Activity (Mus musculus [7]): inhibited

**Q.** Which Activity (Rattus norvegicus [2]) does the source give for `C/C=C(\C)C(=O)O[C@H]1[C@H](OC(C)=O)[C@@]2(CO)C(CC1(C)C)C1=CCC3[C@@]4(C)CC[C@H](O[C@@H]5O[C@H](C(=O)O)[C@@H](O[C@@H]6O[C@H](CO)[C@@H](O)[C@H](O)[C@H]6O)[C@H](O)[C@H]5O[C@@H]5OC[C@@H](O)[C@H](O)[C@H]5O)[C@](C)(CO)C4CC[C@@]3(C)[C@]1(C)C[C@H]2O` (stereo not given in full) here?
**A.** The Activity was “inhibited”.

**Q.** And the Activity (Rattus norvegicus [3])?
**A.** The Activity was “inhibited”.

**Q.** And the Activity (Mus musculus [4])?
**A.** Its Activity is “inhibited”.

**Q.** What about the Activity (Rattus norvegicus [5]) of the same molecule?
**A.** The Activity was “inhibited”.

**Q.** What about the Activity (Rattus norvegicus [6]) of the same molecule?
**A.** The Activity was “inhibited”.

**Q.** What about the Activity (Mus musculus [7]) of the same molecule?
**A.** Its Activity is “inhibited”.

**Q.** With `C/C=C(\C)C(=O)O[C@H]1[C@H](OC(C)=O)[C@@]2(CO)C(CC1(C)C)C1=CCC3[C@@]4(C)CC[C@H](O[C@@H]5O[C@H](C(=O)O)[C@@H](O[C@@H]6O[C@H](CO)[C@@H](O)[C@H](O)[C@H]6O)[C@H](O)[C@H]5O[C@@H]5O[C@H](CO)[C@@H](O)[C@H](O)[C@H]5O)[C@](C)(CO)C4CC[C@@]3(C)[C@]1(C)C[C@H]2O` (stereo not given in full) as the molecule, how does the Activity (Rattus norvegicus [2]) read?
**A.** Its Activity is “inhibited”.

**Q.** What about the Activity (Rattus norvegicus [8]) of the same molecule?
**A.** Its Activity is “inhibited”.

**Q.** And the Activity (Rattus norvegicus [3])?
**A.** The Activity was “inhibited”.

**Q.** And the Activity (Mus musculus [4])?
**A.** Its Activity is “inhibited”.

**Q.** And the Activity (Rattus norvegicus [6])?
**A.** Its Activity is “inhibited”.

**Q.** What about the Activity (Mus musculus [7]) of the same molecule?
**A.** The Activity was “inhibited”.
